Earlier results as cited in patent publication US4528378A, “Substituted 3,4-diamino-1,2,5-thiadiazoles having histamine H2 -receptor antagonist activity” (Bristol-Myers Company, priority 1984, dated 1985).

Tested on: peptic ulcer disease
Conditions: Gray et al., Lancet, 1, 8001 (1977)

CN/C(=N/CCSCc1nc[nH]c1C)NC#N [cimetidine]
clinical efficacy in treatment of peptic ulcer disease: effective therapeutic agent in the treatment of peptic ulcer disease
